Assay [1] concerns C. neoformans. The assay is described as follows: microbe, parasite or virus in culture. The class given is cell-based, Cryptococcus neoformans. Particulars: 48 h. The source says:
(§1) Microbial strains: Microbial strains were procured from National Culture Collection of Pathogenic Fungi (NCCPF) at the Postgraduate Institute of Medical Education & Research (PGIMER), Chandigarh and Microbial Type Culture Collection and Gene bank (MTCC) at the Institute of Microbial Technology (IMTECH), Chandigarh, India. Peptides were screened against five different strains of fungi: viz. Candida albicans (NCCPF400034), Candida glabrata (MTCC 3019), Candida parapsilosis (NCCPF 440002), Candida krusei (NCCPF 440002) and Cryptococcus neoformans (NCCPF250316), and five strains of bacteria: viz. Escherichia coli (MTCC 2961), Staphylococcus aureus (MTCC 3160), Enterococcus faecalis (MTCC 439), Streptococcus pyogenes (MTCC 442) and Pseudomonas aeruginosa (MTCC 3542).
(§2) Growth media: Antifungal susceptibility testing was carried out using standard broth microdilution assays as per the Clinical and Laboratory Standards Institute (CLSI) guidelines for fungi. RPMI 1640 (Sigma), yeast extract, peptone and dextrose (YPED, Himedia) were used as the incubation broths. The cells were diluted to a cell density of 10^3 colony forming unit (CFU/mL) and incubated at 30 °C for 48 h. Furthermore, Muller Hinton (Himedia) media was utilized for bacterial strains and antibacterial activity was evaluated per CLSI guidelines for bacteria. Bacterial cells were diluted to a cell density of 10^5 CFU/mL and incubated at 37 °C for 24 h. Amphotericin B (Himedia, India) and rifampicin (Himedia, India) were used as standard drugs for the evaluation of activity against all the fungal and bacterial strains, respectively.
(§3) The stock solutions of peptides (2 mg/mL) were prepared in DMSO. Specific amounts of peptide from stock solution were added to a 96-well microtiter plate containing 100 μL of growth media and then serially diluted two-fold. A further 100 μL of growth media containing microbial cells were added to each well and incubated at 30–37 °C for 24–48 h. The optical density (OD) was measured at 600 nm using a BioStack Ready (BioTek Instruments, Winooski, VT, USA) microplate reader to analyze microbial growth inhibition, and IC50 and MIC values were calculated. To visualize the growth and inhibition pattern, a solution of 3-(4,5-dimethylthiazol-2-yl)-2,5-diphenyltetrazolium bromide (MTT) in water was added to the plate and incubated for 2–3 h. MTT reacts with the mitochondrial dehydrogenases, which are present only in a viable cell, to give blue colored formazan crystals. Therefore, a darker color indicates a high number of viable cells; however, non-viable cells appear pale or colorless.

Assay [2] relates to C. albicans. The assay is described as follows: microbe, parasite or virus in culture. The class given is cell-based, Candida albicans. Conditions: 48 h.
Source text: as §1, §2, §3

In assay [3] the test system is C. glabrata. The assay can be described thus: microbe, parasite or virus in culture. The class given is cell-based, Candida glabrata. Particulars: 48 h.
Source text: as §1, §2, §3

Assay [4] concerns C. parapsilosis. The assay can be described thus: microbe, parasite or virus in culture. The class given is cell-based, Candida parapsilosis. Particulars: 48 h.
Source text: as §1, §2, §3

Assay [5] relates to C. krusei. The assay is described as follows: microbe, parasite or virus in culture. The class given is cell-based, Candida krusei. Particulars: 48 h.
Source text: as §1, §2, §3

The subject of assay [6] is C. neoformans cells. The assay can be described thus: Time kill assay. Particulars: negative-control peptides, compared with untreated cells, 24 h.
In assay [7] the test system is C. neoformans cells. The assay is described as follows: CLSM FITC-labeled peptide uptake assay. The class given is cell-based, Cryptococcus neoformans. Particulars: FITC-tagged peptide, 12 h. As to the method: After incubation, cells were harvested by centrifugation at 2000× g for 10 min at 4 °C and suspended in PBS and mounted on a slide for visualization under a confocal microscope with excitation and emission wavelengths of 488 nm and 515 nm, respectively.

The test system of assay [8] is Cryptococcal cells.
Assay [9] deals with Cryptococcal cells. The assay is described as follows: microbe, parasite or virus in culture. Particulars: Cryptococcus neoformans, read-out: MIC Alone.
Assay [10] has as its system E. faecalis. The assay can be described thus: microbe, parasite or virus in culture. The class given is cell-based, Enterococcus faecalis. Particulars: 48 h.
Assay [11] concerns S. aureus. The assay is described as follows: microbe, parasite or virus in culture. The class given is cell-based, Staphylococcus aureus. Particulars: 48 h.
Source text: as §1
as §2, with “Bacterial cells were diluted to a cell density of 10^5 CFU/mL and incubated at 37 °C for 24 h.” left out
as §3

The subject of assay [12] is S. pyogens. The assay is described as follows: microbe, parasite or virus in culture. The class given is cell-based, Streptococcus pyogenes. Conditions: 48 h.
In assay [13] the test system is E. coli. The assay is described as follows: microbe, parasite or virus in culture. The class given is cell-based, Escherichia coli. Conditions: 48 h.
Source text: as §1
as §2, with “Bacterial cells were diluted to a cell density of 10^5 CFU/mL and incubated at 37 °C for 24 h.” left out
as §3

Assay [14] concerns P. aeruginosa. The assay can be described thus: microbe, parasite or virus in culture. The class given is cell-based, Pseudomonas aeruginosa. Particulars: 48 h.

The structures appear in SMILES notation. Values after ≈ are worked out from the molar mass of the structure shown. Like-named read-outs stand apart in the source and are kept apart here. Bounds are passed on as bounds.

For orientation: IC50 means the midpoint of a concentration-inhibition curve. With `COC(=O)[C@H](Cc1ncn(Cc2cc(C(C)(C)C)cc(C(C)(C)C)c2)c1I)NC(=O)[C@H](Cc1c[nH]c2ccccc12)NC(=O)OC(C)(C)C` [9d], the IC50 in assay [1], in assay [2], in [3], in [4] and in [5] was >35.2 µg/mL throughout. Further, the MIC in assay [1], in assay [2], in assay [3], in assay [4] and in assay [5] was >64.0 µg/mL in each case. For the same compound, in assay [6], the “Growth inhibition in time-kill profile” value is reported as “did not show any growth inhibition”.
As for `COC(=O)[C@H](Cc1ncn(Cc2ccc([N+](=O)[O-])cc2)c1I)NC(=O)[C@@H](N)Cc1c[nH]c2ccccc12` [10h], the MIC in assay [1], in assay [2], in [3], in assay [4] and in assay [5] was >64.0 µg/mL each time. Moreover, the IC50 in [2], in assay [3], in assay [4] and in [5] was >35.2 µg/mL throughout. Also, in [7], the “Fluorescence of cells incubated with FITC-labeled peptide (CLSM)” value is given as “did not show any fluorescence”.
Turning to `OC(Cn1cncn1)(Cn1cncn1)c1ccc(F)cc1F` [Flu, fluconazole], in [8] (combination 10o + Flu), the Effect result is listed as “Additive”, the FICI is given as 1.00, the “Fold Decrease in MIC” value was 2 and the “MIC In Combination” value came to 5.0 µg/mL. Moreover, in assay [8] (combination 10d + Flu), the Effect result was “Synergistic”, the FICI is reported as 0.19, the “Fold Decrease in MIC” value stood at 16 and the “MIC In Combination” value was found to be 0.625 µg/mL. In addition, the “Fold Decrease in MIC” value in assay [8] (combination 10d + Flu, listed as fluconazole) is on record as “approx. 16”. The “MIC Alone” value in assay [8] (cryptococcal cells, agent alone) came to 10.0 µg/mL (≈ 32.7 µM). In addition, the MIC in assay [9] was 10 µg/mL (≈ 32.7 µM).
`COC(=O)[C@H](Cc1ncn(Cc2cccc(Cl)c2)c1I)NC(=O)[C@@H](N)Cc1c[nH]c2ccccc12` [10l]: the MIC was 32.11 µg/mL (≈ 53 µM) in assay [1]; >64.0 µg/mL in assay [2]; >64.0 µg/mL in assay [3]; >64.0 µg/mL in assay [4]; >64.0 µg/mL in assay [5]; >64.0 µg/mL in assay [10]. The MIC in assay [11], in [12], in [13] and in assay [14] was >64.0 µg/mL throughout. For the same compound, the IC50 in assay [2], in assay [3], in [4], in [5], in assay [10] and in [11] was >35.2 µg/mL throughout. The 50% inhibitory concentration (IC50) in assay [12], in assay [13] and in [14] was >35.2 µg/mL in each case.
Regarding `COC(=O)[C@H](Cc1ncn(Cc2cccc(F)c2)c1I)NC(=O)[C@@H](N)Cc1c[nH]c2ccccc12` [10k], the IC50 in [1] was 2.78 µg/mL (≈ 4.72 µM); in [2] it was >35.2 µg/mL; in assay [3], >35.2 µg/mL; in assay [4] it was >35.2 µg/mL; in [5] it was >35.2 µg/mL; in [10], >35.2 µg/mL. The IC50 in assay [11], in assay [12], in [13] and in assay [14] was >35.2 µg/mL each time. In addition, the MIC in assay [1] is 4.64 µg/mL (≈ 7.87 µM); in assay [2], >64.0 µg/mL; in assay [3] it was >64.0 µg/mL; in assay [4] it was >64.0 µg/mL; in [5], >64.0 µg/mL; in assay [10] it was >64.0 µg/mL. Besides, the MIC in [11], in assay [12], in assay [13] and in [14] was >64.0 µg/mL throughout.
`COC(=O)[C@H](Cc1ncn(Cc2cccc(C(F)(F)F)c2)c1I)NC(=O)[C@@H](N)Cc1c[nH]c2ccccc12` [10e]: the IC50 in assay [1] was 4.87 µg/mL (≈ 7.62 µM); in [2], >35.2 µg/mL; in assay [3] it was >35.2 µg/mL; in assay [4], >35.2 µg/mL; in assay [5], >35.2 µg/mL; in assay [10], >35.2 µg/mL. Besides, the IC50 in assay [11], in [12], in assay [13] and in assay [14] was >35.2 µg/mL in each case. Besides, the MIC in [1] was 8.86 µg/mL (≈ 13.9 µM); in [2], >64.0 µg/mL; in assay [3], >64.0 µg/mL; in [4] it was >64.0 µg/mL; in [5], >64.0 µg/mL; in assay [10], >64.0 µg/mL. Besides, the MIC in assay [11], in assay [12], in assay [13] and in assay [14] was >64.0 µg/mL each time.
As to `COC(=O)[C@H](Cc1ncn(Cc2cccc(I)c2)c1I)NC(=O)[C@@H](N)Cc1c[nH]c2ccccc12` [10n, Trp-His[1-(3-iodobenzyl)-5-iodo]-OMe], the MIC in assay [1] was 32.05 µg/mL (≈ 46 µM); in [2], >64.0 µg/mL; in assay [3], >64.0 µg/mL; in [4] it was >64.0 µg/mL; in assay [5], >64.0 µg/mL; in [10], >64.0 µg/mL. Moreover, the MIC in assay [11], in assay [12], in [13] and in assay [14] was >64.0 µg/mL in each case. Further, the concentration for half-maximal inhibition (IC50) in assay [2], in assay [3], in assay [4], in assay [5], in assay [10] and in assay [11] was >35.2 µg/mL each time. The IC50 in assay [12], in [13] and in [14] was >35.2 µg/mL in each case.

Source of the values: article PMC9821961, “Ring-Modified Histidine-Containing Cationic Short Peptides Exhibit Anticryptococcal Activity by Cellular Disruption” (Molecules, 2022).
